Assays:
B. subtilis 168 [1] = test: fitness (endpoint OD595 vs no drug) (fraction); higher = more growth
Method in brief: (§1)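 Bacterial fitness was scored as optical density at the stationary-phase transition relative to the robust mean of no-drug control wells. Scores are capped at 1. The growth data were OD595 readings every 30 min for 14 h at 37 °C, background-subtracted against the first reading, from 384-well plates inoculated at OD595 0.01 in TSB, LB Lennox or CY.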

S. pneumoniae D39V [2] = test: as above
Method in brief: as §1

B. subtilis 168 [3] = test: Bliss interaction score (quartile over a dose matrix) (fitness difference); higher = more antagonism (negative = synergy)
Method in brief: (§2)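 Each OD595 reading at entry into stationary phase was scaled to the robust mean of the untreated wells on its plate, with a ceiling of 1. These ratios define fitness, and single-drug fitness was inferred from combinations. The Bliss score compares observed fitness with the product-based expectation and is reported as quartiles across all replicate types, technical, biological and donor/recipient.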

S. aureus DSM 20231 = test: as above
Method in brief: as §2

S. pneumoniae D39V [4] = test: as above
Method in brief: as §2

S. aureus Newman = test: as above
Method in brief: as §2
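For Bliss interaction score (quartile over a dose matrix) in this document: first quartile when negative (synergy) and third quartile when positive (antagonism).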
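For fitness (endpoint OD595 vs no drug) in this document: OD595 on entry to stationary phase over no-drug wells; at most 1.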

CN(C)C(=O)C(CCN1CCC(O)(c2ccc(Cl)cc2)CC1)(c1ccccc1)c1ccccc1 [Loperamide] + CN[C@@H]1[C@H](O[C@H]2[C@H](O[C@H]3[C@H](O)[C@@H](O)[C@H](N=C(N)N)[C@@H](O)[C@@H]3N=C(N)N)O[C@@H](C)[C@]2(O)C=O)O[C@@H](CO)[C@H](O)[C@H]1O [Streptomycin]
fitness
Details | partner 2 µg/mL | partner 4 µg/mL | partner 8 µg/mL
B. subtilis 168 [1], first compound 25 µg/mL | 0.643 | 0.106 | 0.0172
B. subtilis 168 [1], first compound 50 µg/mL | 0.0768 | 0.0399 | 0.019
B. subtilis 168 [1], first compound 100 µg/mL | 0.0865 | 0.0369 | 0.0223
S. pneumoniae D39V [2], first compound 17.14 µg/mL | 0.941 | 0.98 | 0.961
S. pneumoniae D39V [2], first compound 20 µg/mL | – | ≥ 1 | 0.987
S. pneumoniae D39V [2], first compound 34.28 µg/mL | 0.948 | 0.992 | 0.967
S. pneumoniae D39V [2], first compound 40 µg/mL | – | 0.997 | ≥ 1

fitness, S. pneumoniae D39V [2], one replicate
Details | first compound 20 µg/mL | first compound 40 µg/mL | first compound 68.57 µg/mL | first compound 80 µg/mL
partner 2 µg/mL | ≥ 1 | ≥ 1 | 0.871 | 0.86
partner 4 µg/mL | – | – | 0.973 | –
partner 8 µg/mL | – | – | 0.966 | –
partner 16 µg/mL | 0.918 | 0.931 | – | 0.107

Details | Bliss interaction score
B. subtilis 168 [3] | -0.0818
S. aureus DSM 20231 | -0.236
S. aureus Newman | 0.0869
S. pneumoniae D39V [4] | 0.125

CCCCCCCCCC(=O)N[C@@H](Cc1c[nH]c2ccccc12)C(=O)N[C@H](CC(N)=O)C(=O)N[C@@H](CC(=O)O)C(=O)N[C@@H]1C(=O)NCC(=O)N[C@@H](CCCN)C(=O)N[C@@H](CC(=O)O)C(=O)N[C@H](C)C(=O)N[C@@H](CC(=O)O)C(=O)NCC(=O)N[C@H](CO)C(=O)N[C@@H]([C@H](C)CC(=O)O)C(=O)N[C@@H](CC(=O)c2ccccc2N)C(=O)O[C@@H]1C [Daptomycin] + C[C@H]1COc2c(N3CCN(C)CC3)c(F)cc3c(=O)c(C(=O)O)cn1c23 [Levofloxacin]
fitness, B. subtilis 168 [1], one replicate
Details | first compound 0.125 µg/mL | first compound 0.25 µg/mL | first compound 0.5 µg/mL | first compound 1 µg/mL
partner 0.001 µg/mL | 0.992 | ≥ 1 | 0.978 | –
partner 0.002 µg/mL | 0.949 | – | – | 0.753
partner 0.0039 µg/mL | 0.891 | – | – | 0.742
partner 0.0078 µg/mL | – | 0.829 | 0.882 | 0.723

Details | fitness
B. subtilis 168 [1], first compound 0.125 µg/mL, partner 0.0312 µg/mL | 0.0386
B. subtilis 168 [1], first compound 0.125 µg/mL, partner 0.0625 µg/mL | 0.0435
B. subtilis 168 [1], first compound 0.125 µg/mL, partner 0.125 µg/mL | 0.0465
B. subtilis 168 [1], first compound 0.25 µg/mL, partner 0.002 µg/mL | 0.949
B. subtilis 168 [1], first compound 0.25 µg/mL, partner 0.0039 µg/mL | 0.95
B. subtilis 168 [1], first compound 0.25 µg/mL, partner 0.0312 µg/mL | 0.043
B. subtilis 168 [1], first compound 0.25 µg/mL, partner 0.0625 µg/mL | 0.0534
B. subtilis 168 [1], first compound 0.25 µg/mL, partner 0.125 µg/mL | 0.073
B. subtilis 168 [1], first compound 0.5 µg/mL, partner 0.002 µg/mL | 0.915
B. subtilis 168 [1], first compound 0.5 µg/mL, partner 0.0039 µg/mL | 0.904
B. subtilis 168 [1], first compound 0.5 µg/mL, partner 0.0312 µg/mL | 0.0448
B. subtilis 168 [1], first compound 0.5 µg/mL, partner 0.0625 µg/mL | 0.071
B. subtilis 168 [1], first compound 0.5 µg/mL, partner 0.125 µg/mL | 0.0639
S. pneumoniae D39V [2], first compound 1 µg/mL, partner 0.1725 µg/mL | 0.909
S. pneumoniae D39V [2], first compound 1 µg/mL, partner 0.2 µg/mL | 0.867
S. pneumoniae D39V [2], first compound 1 µg/mL, partner 0.345 µg/mL | 0.794
S. pneumoniae D39V [2], first compound 1 µg/mL, partner 0.4 µg/mL | 0.678
S. pneumoniae D39V [2], first compound 1 µg/mL, partner 0.69 µg/mL | 0.531
S. pneumoniae D39V [2], first compound 1 µg/mL, partner 0.8 µg/mL | 0.132
S. pneumoniae D39V [2], first compound 2 µg/mL, partner 0.1725 µg/mL | 0.917
S. pneumoniae D39V [2], first compound 2 µg/mL, partner 0.2 µg/mL | 0.88
S. pneumoniae D39V [2], first compound 2 µg/mL, partner 0.345 µg/mL | 0.813
S. pneumoniae D39V [2], first compound 2 µg/mL, partner 0.4 µg/mL | 0.675
S. pneumoniae D39V [2], first compound 2 µg/mL, partner 0.69 µg/mL | 0.366
S. pneumoniae D39V [2], first compound 2 µg/mL, partner 0.8 µg/mL | 0.165
S. pneumoniae D39V [2], first compound 4 µg/mL, partner 0.1725 µg/mL | 0.949
S. pneumoniae D39V [2], first compound 4 µg/mL, partner 0.2 µg/mL | 0.818
S. pneumoniae D39V [2], first compound 4 µg/mL, partner 0.345 µg/mL | 0.86
S. pneumoniae D39V [2], first compound 4 µg/mL, partner 0.4 µg/mL | 0.551
S. pneumoniae D39V [2], first compound 4 µg/mL, partner 0.69 µg/mL | 0.615
S. pneumoniae D39V [2], first compound 4 µg/mL, partner 0.8 µg/mL | 0.133

Details | Bliss interaction score
B. subtilis 168 [3] | 0.0436
S. aureus DSM 20231 | -0.0494
S. aureus Newman | -0.0469
S. pneumoniae D39V [4] | -0.18

CCCCCCCCCC(=O)N[C@@H](Cc1c[nH]c2ccccc12)C(=O)N[C@H](CC(N)=O)C(=O)N[C@@H](CC(=O)O)C(=O)N[C@@H]1C(=O)NCC(=O)N[C@@H](CCCN)C(=O)N[C@@H](CC(=O)O)C(=O)N[C@H](C)C(=O)N[C@@H](CC(=O)O)C(=O)NCC(=O)N[C@H](CO)C(=O)N[C@@H]([C@H](C)CC(=O)O)C(=O)N[C@@H](CC(=O)c2ccccc2N)C(=O)O[C@@H]1C [Daptomycin] + CN(C)C(=O)C(CCN1CCC(O)(c2ccc(Cl)cc2)CC1)(c1ccccc1)c1ccccc1 [Loperamide]
fitness
Details | partner 17.14 µg/mL | partner 20 µg/mL | partner 25 µg/mL | partner 34.28 µg/mL | partner 40 µg/mL | partner 80 µg/mL | partner 100 µg/mL
B. subtilis 168 [1], first compound 0.125 µg/mL | – | – | 0.862 | – | – | – | 0.0281
B. subtilis 168 [1], first compound 0.25 µg/mL | – | – | 0.802 | – | – | – | 0.0213
B. subtilis 168 [1], first compound 0.5 µg/mL | – | – | 0.669 | – | – | – | 0.0107
S. pneumoniae D39V [2], first compound 1 µg/mL | 0.888 | ≥ 1 | – | 0.877 | ≥ 1 | 0.225 | –
S. pneumoniae D39V [2], first compound 2 µg/mL | 0.951 | ≥ 1 | – | 0.919 | ≥ 1 | 0.153 | –
S. pneumoniae D39V [2], first compound 4 µg/mL | 0.917 | ≥ 1 | – | 0.918 | ≥ 1 | 0.196 | –

fitness, one replicate
Details | first compound 1 µg/mL | first compound 2 µg/mL | first compound 4 µg/mL
B. subtilis 168 [1], partner 25 µg/mL | 0.191 | – | –
B. subtilis 168 [1], partner 50 µg/mL | 0.0409 | – | –
B. subtilis 168 [1], partner 100 µg/mL | 0.0167 | – | –
S. pneumoniae D39V [2], partner 68.57 µg/mL | 0.856 | 0.858 | 0.887

Details | Bliss interaction score
B. subtilis 168 [3] | 0.136
S. aureus DSM 20231 | 0.133
S. aureus Newman | 0.0375
S. pneumoniae D39V [4] | 0.075

CN(C)C(=O)C(CCN1CCC(O)(c2ccc(Cl)cc2)CC1)(c1ccccc1)c1ccccc1 [Loperamide] + COc1cc(Cc2cnc(N)nc2N)cc(OC)c1OC [Trimethoprim]
fitness, B. subtilis 168 [1], one replicate
Details | partner 0.1 µg/mL | partner 0.125 µg/mL | partner 0.2 µg/mL | partner 0.4 µg/mL | partner 1 µg/mL | partner 2 µg/mL
first compound 25 µg/mL | 0.0203 | 0.525 | 0.0477 | 0.0288 | 0.0225 | 0.0222
first compound 50 µg/mL | 0.0097 | 0.0833 | 0.0381 | 0.0129 | 0.0319 | 0.0248
first compound 100 µg/mL | 0.0141 | 0.107 | 0.0463 | 0.0259 | 0.031 | 0.0361

fitness, B. subtilis 168 [1]
Details | first compound 50 µg/mL | first compound 100 µg/mL
partner 0.25 µg/mL | 0.201 | 0.0658
partner 0.5 µg/mL | 0.0275 | 0.0239

Details | Bliss interaction score
B. subtilis 168 [3] | -0.102
S. aureus DSM 20231 | -0.0416
S. aureus Newman | 0.0605
S. pneumoniae D39V [4] | 0.274
